In the NIST ThermoML archive (doi:10.1016/j.jct.2006.02.005):
Values joined by “and” are separate entries in the source; they are usually repeats but may differ in a detail not shown here. Identical values can stand only once.

Tests used:
[1] = Molar enthalpy of transition or fusion
[2] = molar heat capacity at constant pressure; conditions: 101.33 kPa
[3] = for Normal melting temperature: Crystal 1; for Triple point temperature: Crystal 2

CC(N)(CO)CO [2-amino-2-methyl-1,3-propanediol]
[1]
Conditions	Molar enthalpy of transition or fusion [kcal/mol]
Crystal 1	0.658
Crystal 2	5.63

[2]
Conditions	molar heat capacity at constant pressure
193.15 K, Crystal 3	118.91 J/K/mol and 107.45 J/K/mol and 121.86 J/K/mol
198.15 K, Crystal 3	121.86 J/K/mol and 119.23 J/K/mol and 108.93 J/K/mol
203.15 K, Crystal 3	123.22 J/K/mol and 119.86 J/K/mol and 110.29 J/K/mol
208.15 K, Crystal 3	119.54 J/K/mol and 111.13 J/K/mol and 124.91 J/K/mol
213.15 K, Crystal 3	126.27 J/K/mol and 119.96 J/K/mol and 112.18 J/K/mol
218.15 K, Crystal 3	127.85 J/K/mol and 121.12 J/K/mol and 113.66 J/K/mol
223.15 K, Crystal 3	129.11 J/K/mol and 122.28 J/K/mol and 115.97 J/K/mol
228.15 K, Crystal 3	130.37 J/K/mol and 123.22 J/K/mol and 118.39 J/K/mol
233.15 K, Crystal 3	132.06 J/K/mol and 124.17 J/K/mol and 121.02 J/K/mol
238.15 K, Crystal 3	133.84 J/K/mol and 125.85 J/K/mol and 124.17 J/K/mol
243.15 K, Crystal 3	135 J/K/mol and 129.32 J/K/mol and 126.8 J/K/mol
248.15 K, Crystal 3	136.37 J/K/mol and 130.9 J/K/mol and 128.8 J/K/mol
253.15 K, Crystal 3	130.69 J/K/mol and 135.32 J/K/mol and 132.16 J/K/mol
258.15 K, Crystal 3	131.32 J/K/mol and 134.05 J/K/mol and 134.16 J/K/mol
263.15 K, Crystal 3	133 J/K/mol and 134.05 J/K/mol and 136.37 J/K/mol
268.15 K, Crystal 3	134.16 J/K/mol and 135.84 J/K/mol and 137.52 J/K/mol
273.15 K, Crystal 3	134.58 J/K/mol and 137.42 J/K/mol and 138.78 J/K/mol
278.15 K, Crystal 3	136.79 J/K/mol and 139.1 J/K/mol and 140.47 J/K/mol
283.15 K, Crystal 3	139.63 J/K/mol and 140.68 J/K/mol and 142.67 J/K/mol
288.15 K, Crystal 3	142.04 J/K/mol and 143.83 J/K/mol
293.15 K, Crystal 3	143.62 J/K/mol and 144.46 J/K/mol and 145.83 J/K/mol
298.15 K, Crystal 3	145.62 J/K/mol and 146.46 J/K/mol and 148.25 J/K/mol
303.15 K, Crystal 3	147.51 J/K/mol and 148.46 J/K/mol and 151.61 J/K/mol
308.15 K, Crystal 3	148.88 J/K/mol and 150.03 J/K/mol and 153.82 J/K/mol
313.15 K, Crystal 3	150.67 J/K/mol and 151.82 J/K/mol and 154.56 J/K/mol
318.15 K, Crystal 3	151.51 J/K/mol and 154.35 J/K/mol and 155.5 J/K/mol
323.15 K, Crystal 3	152.66 J/K/mol and 156.87 J/K/mol and 158.97 J/K/mol
328.15 K, Crystal 3	154.98 J/K/mol and 159.5 J/K/mol and 164.54 J/K/mol
333.15 K, Crystal 3	157.6 J/K/mol and 162.34 J/K/mol and 168.33 J/K/mol
338.15 K, Crystal 3	160.02 J/K/mol and 165.49 J/K/mol and 171.9 J/K/mol
343.15 K, Crystal 3	163.07 J/K/mol and 168.33 J/K/mol and 176.74 J/K/mol
348.15 K, Crystal 3	186.94 J/K/mol and 175.58 J/K/mol and 198.92 J/K/mol
368.15 K, Crystal 1	297.97 J/K/mol and 303.43 J/K/mol and 287.35 J/K/mol
373.15 K, Crystal 1	299.96 J/K/mol and 302.7 J/K/mol and 289.98 J/K/mol
378.15 K, Crystal 1	306.17 J/K/mol and 309.95 J/K/mol and 295.76 J/K/mol
393.15 K, Liquid	322.67 J/K/mol and 320.57 J/K/mol and 328.56 J/K/mol
398.15 K, Liquid	327.41 J/K/mol and 323.41 J/K/mol and 339.71 J/K/mol
403.15 K, Liquid	331.72 J/K/mol and 325.62 J/K/mol and 352.43 J/K/mol
408.15 K, Liquid	327.83 J/K/mol and 335.19 J/K/mol
413.15 K, Liquid	330.03 J/K/mol

[3]
Conditions	Normal melting temperature [°C]	Triple point temperature [K]
–	110.93	355.66

NC(CO)(CO)CO [2-amino-2-(hydroxymethyl)-1,3-propanediol]
[1]
Conditions	Molar enthalpy of transition or fusion [kcal/mol]
Crystal 1	0.742
Crystal 2	8

[2]
Conditions	molar heat capacity at constant pressure
193.15 K, Crystal 2	122.47 J/K/mol and 125.13 J/K/mol and 118.14 J/K/mol
198.15 K, Crystal 2	123.8 J/K/mol and 126.58 J/K/mol and 119.34 J/K/mol
203.15 K, Crystal 2	124.41 J/K/mol and 128.03 J/K/mol and 119.97 J/K/mol
208.15 K, Crystal 2	130.34 J/K/mol and 121.62 J/K/mol and 126.22 J/K/mol
213.15 K, Crystal 2	128.53 J/K/mol and 132.76 J/K/mol and 124.17 J/K/mol
218.15 K, Crystal 2	130.83 J/K/mol and 135.3 J/K/mol and 125.62 J/K/mol
223.15 K, Crystal 2	133.13 J/K/mol and 137.12 J/K/mol and 127.31 J/K/mol
228.15 K, Crystal 2	135.31 J/K/mol and 138.33 J/K/mol and 129.5 J/K/mol
233.15 K, Crystal 2	131.07 J/K/mol and 137.49 J/K/mol and 140.87 J/K/mol
238.15 K, Crystal 2	133.61 J/K/mol and 139.67 J/K/mol and 143.78 J/K/mol
243.15 K, Crystal 2	139.07 J/K/mol and 142.09 J/K/mol and 145.84 J/K/mol
248.15 K, Crystal 2	143.18 J/K/mol and 144.27 J/K/mol and 148.75 J/K/mol
253.15 K, Crystal 2	144.76 J/K/mol and 146.7 J/K/mol and 151.05 J/K/mol
258.15 K, Crystal 2	146.82 J/K/mol and 149.24 J/K/mol and 153.23 J/K/mol
263.15 K, Crystal 2	150.82 J/K/mol and 152.03 J/K/mol and 155.65 J/K/mol
268.15 K, Crystal 2	154.81 J/K/mol and 154.69 J/K/mol and 158.07 J/K/mol
273.15 K, Crystal 2	156.87 J/K/mol and 156.99 J/K/mol and 160.74 J/K/mol
278.15 K, Crystal 2	157.96 J/K/mol and 159.66 J/K/mol and 163.65 J/K/mol
283.15 K, Crystal 2	160.99 J/K/mol and 162.69 J/K/mol and 166.8 J/K/mol
288.15 K, Crystal 2	163.78 J/K/mol and 165.84 J/K/mol and 169.46 J/K/mol
293.15 K, Crystal 2	166.32 J/K/mol and 169.11 J/K/mol and 171.4 J/K/mol
298.15 K, Crystal 2	169.83 J/K/mol and 171.89 J/K/mol and 174.79 J/K/mol
303.15 K, Crystal 2	172.14 J/K/mol and 174.44 J/K/mol and 179.03 J/K/mol
308.15 K, Crystal 2	173.95 J/K/mol and 177.34 J/K/mol and 182.3 J/K/mol
313.15 K, Crystal 2	175.89 J/K/mol and 180.01 J/K/mol and 185.33 J/K/mol
318.15 K, Crystal 2	180.37 J/K/mol and 182.55 J/K/mol and 188.36 J/K/mol
323.15 K, Crystal 2	185.82 J/K/mol and 185.1 J/K/mol and 191.63 J/K/mol
328.15 K, Crystal 2	189.46 J/K/mol and 187.4 J/K/mol and 194.41 J/K/mol
333.15 K, Crystal 2	192 J/K/mol and 189.82 J/K/mol and 197.08 J/K/mol
338.15 K, Crystal 2	195.52 J/K/mol and 192.24 J/K/mol and 200.35 J/K/mol
343.15 K, Crystal 2	198.06 J/K/mol and 194.3 J/K/mol and 203.14 J/K/mol
348.15 K, Crystal 2	200.6 J/K/mol and 196.97 J/K/mol and 206.04 J/K/mol
353.15 K, Crystal 2	203.15 J/K/mol and 199.15 J/K/mol and 209.19 J/K/mol
358.15 K, Crystal 2	201.94 J/K/mol and 211.86 J/K/mol and 205.93 J/K/mol
363.15 K, Crystal 2	209.93 J/K/mol and 203.99 J/K/mol and 214.4 J/K/mol
368.15 K, Crystal 2	212.96 J/K/mol and 206.78 J/K/mol and 217.31 J/K/mol
373.15 K, Crystal 2	215.26 J/K/mol and 209.45 J/K/mol and 219.61 J/K/mol
378.15 K, Crystal 2	218.17 J/K/mol and 212.35 J/K/mol and 222.64 J/K/mol
383.15 K, Crystal 2	221.8 J/K/mol and 214.9 J/K/mol and 226.15 J/K/mol
388.15 K, Crystal 2	227.37 J/K/mol and 217.93 J/K/mol and 229.78 J/K/mol
393.15 K, Crystal 2	229.31 J/K/mol and 221.32 J/K/mol and 233.54 J/K/mol
398.15 K, Crystal 2	234.28 J/K/mol and 225.68 J/K/mol and 237.9 J/K/mol
423.15 K, Crystal 1	367.05 J/K/mol and 386.4 J/K/mol and 376.37 J/K/mol
428.15 K, Crystal 1	368.14 J/K/mol and 390.4 J/K/mol and 378.19 J/K/mol
433.15 K, Crystal 1	369.95 J/K/mol and 393.79 J/K/mol and 383.04 J/K/mol
438.15 K, Crystal 1	396.7 J/K/mol and 389.58 J/K/mol and 371.65 J/K/mol
453.15 K, Liquid	395.39 J/K/mol
458.15 K, Liquid	396.6 J/K/mol
463.15 K, Liquid	398.06 J/K/mol
468.15 K, Liquid	400.36 J/K/mol
473.15 K, Liquid	400.72 J/K/mol

[3]
Conditions	Normal melting temperature [°C]	Triple point temperature [K]
–	171.42	409.2

CC(C)(CO)CO [2,2-dimethyl-1,3-propanediol]
[1]
Conditions	Molar enthalpy of transition or fusion [kcal/mol]
Crystal 1	1.01
Crystal 2	2.92

[2]
Conditions	molar heat capacity at constant pressure
193.15 K, Crystal 2	120.71 J/K/mol and 121.44 J/K/mol
198.15 K, Crystal 2	122.48 J/K/mol and 123 J/K/mol
203.15 K, Crystal 2	124.15 J/K/mol and 124.36 J/K/mol
208.15 K, Crystal 2	123.83 J/K/mol and 125.5 J/K/mol
213.15 K, Crystal 2	125.6 J/K/mol and 127.58 J/K/mol
218.15 K, Crystal 2	127.48 J/K/mol and 130.08 J/K/mol
223.15 K, Crystal 2	130.08 J/K/mol and 132.06 J/K/mol
228.15 K, Crystal 2	132.79 J/K/mol and 133.62 J/K/mol
233.15 K, Crystal 2	134.98 J/K/mol and 134.87 J/K/mol
238.15 K, Crystal 2	135.71 J/K/mol and 136.54 J/K/mol
243.15 K, Crystal 2	136.64 J/K/mol and 138.1 J/K/mol
248.15 K, Crystal 2	136.64 J/K/mol and 140.5 J/K/mol
253.15 K, Crystal 2	138 J/K/mol and 142.37 J/K/mol
258.15 K, Crystal 2	139.46 J/K/mol and 144.66 J/K/mol
263.15 K, Crystal 2	141.23 J/K/mol and 147.79 J/K/mol
268.15 K, Crystal 2	142.89 J/K/mol and 150.6 J/K/mol
273.15 K, Crystal 2	145.29 J/K/mol and 153.62 J/K/mol
278.15 K, Crystal 2	156.54 J/K/mol and 147.48 J/K/mol
283.15 K, Crystal 2	160.08 J/K/mol and 150.18 J/K/mol
288.15 K, Crystal 2	164.45 J/K/mol and 153.31 J/K/mol
293.15 K, Crystal 2	168.1 J/K/mol and 156.12 J/K/mol
298.15 K, Crystal 2	172.06 J/K/mol and 159.25 J/K/mol
303.15 K, Crystal 2	176.53 J/K/mol and 163.1 J/K/mol
308.15 K, Crystal 2	184.35 J/K/mol and 167.58 J/K/mol
323.15 K, Crystal 1	260.17 J/K/mol and 244.86 J/K/mol
328.15 K, Crystal 1	268.5 J/K/mol and 247.56 J/K/mol
333.15 K, Crystal 1	250.27 J/K/mol and 274.54 J/K/mol
338.15 K, Crystal 1	252.15 J/K/mol and 278.81 J/K/mol
343.15 K, Crystal 1	254.75 J/K/mol and 282.45 J/K/mol
348.15 K, Crystal 1	256.52 J/K/mol and 286.2 J/K/mol
353.15 K, Crystal 1	258.71 J/K/mol and 288.81 J/K/mol
358.15 K, Crystal 1	260.79 J/K/mol and 291.2 J/K/mol
363.15 K, Crystal 1	263.19 J/K/mol and 294.22 J/K/mol
368.15 K, Crystal 1	265.69 J/K/mol and 296.93 J/K/mol
373.15 K, Crystal 1	268.39 J/K/mol and 299.85 J/K/mol
378.15 K, Crystal 1	272.04 J/K/mol and 303.6 J/K/mol
383.15 K, Crystal 1	277.04 J/K/mol and 309.64 J/K/mol
388.15 K, Crystal 1	285.06 J/K/mol and 322.55 J/K/mol
393.15 K, Crystal 1	309.85 J/K/mol and 358.48 J/K/mol
408.15 K, Liquid	330.26 J/K/mol
413.15 K, Liquid	339.95 J/K/mol
418.15 K, Liquid	345.99 J/K/mol
423.15 K, Liquid	353.38 J/K/mol

[3]
Conditions	Normal melting temperature [°C]	Triple point temperature [K]
–	128.48	315.14
